Results on two compounds are retold here after US11226337B2, “Chemoproteomic profiling of protein electrophilic and oxidative post-translational modifications” (Zenagem, LLC, priority 2017, dated 2022).

For the test, the target named is T1, MAN2B1 Lysosomal alphamannosidase (O00754) (Homo sapiens, UniProt O00754).
T1 construct: shared by both the endogenous and recombinant forms of these proteins; endogenous in cells; host or cells: HEK293T and MDA-MB-231
T1 sequence (O00754 50-1011): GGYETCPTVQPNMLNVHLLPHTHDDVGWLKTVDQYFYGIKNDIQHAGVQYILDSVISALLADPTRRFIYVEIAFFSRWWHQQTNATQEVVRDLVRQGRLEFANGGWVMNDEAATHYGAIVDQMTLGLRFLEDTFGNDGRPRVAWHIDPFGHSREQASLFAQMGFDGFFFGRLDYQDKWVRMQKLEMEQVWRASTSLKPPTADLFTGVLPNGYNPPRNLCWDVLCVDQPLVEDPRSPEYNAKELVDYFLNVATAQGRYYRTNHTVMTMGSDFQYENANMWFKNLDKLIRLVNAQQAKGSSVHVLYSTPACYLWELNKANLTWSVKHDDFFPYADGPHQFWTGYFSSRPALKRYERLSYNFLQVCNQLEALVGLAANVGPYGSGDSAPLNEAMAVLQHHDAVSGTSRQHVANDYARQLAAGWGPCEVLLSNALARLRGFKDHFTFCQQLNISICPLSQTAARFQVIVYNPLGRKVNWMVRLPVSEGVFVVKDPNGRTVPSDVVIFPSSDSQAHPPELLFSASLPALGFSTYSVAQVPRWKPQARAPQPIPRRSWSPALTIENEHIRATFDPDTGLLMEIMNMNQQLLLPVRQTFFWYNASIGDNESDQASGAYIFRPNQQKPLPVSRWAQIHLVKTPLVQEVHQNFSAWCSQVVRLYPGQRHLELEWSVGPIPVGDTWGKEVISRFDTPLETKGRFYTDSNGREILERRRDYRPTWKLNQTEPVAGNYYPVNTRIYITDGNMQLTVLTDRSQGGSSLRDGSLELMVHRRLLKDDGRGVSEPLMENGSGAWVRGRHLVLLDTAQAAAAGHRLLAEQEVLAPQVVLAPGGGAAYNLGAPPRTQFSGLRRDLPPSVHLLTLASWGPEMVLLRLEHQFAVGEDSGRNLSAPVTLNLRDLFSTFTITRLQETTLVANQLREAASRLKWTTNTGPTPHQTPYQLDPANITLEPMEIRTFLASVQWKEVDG
Briefly: SILAC RP-ABPP. Format: cell-based. The settings on record: SILAC H/L, MDA-MB-231.

As to `C#CCNN.Cl` [probe 1, prop-2-yn-1-ylhydrazine hydrochloride], under “probe 1 3 mM 0.5 h vs probe 3”, the enrichment ratioavg amounted to 20. Where the note is “probe 1 vs probe 1+10x probe 3”, the competition ratioavg is given as 8.

Turning to `C#CCCNC(=O)c1ccc(NN)cc1.Cl` [probe 2, N-(but-3-yn-1-yl)-4-hydrazinylbenzamide hydrochloride], under “probe 2 1 mM 0.5 h vs probe 4”, the enrichment ratioavg stood at 20. This compound also registered a competition ratioavg (probe 2 vs probe 2+10x probe 4) of 4.
